Experimental findings from patent US20150246907A1 (ETH Zurich, priority 2012, published 2015) are described below.

The test deals with Mycobacterium tuberculosis strain H37Rv. Description: Minimal inhibitory concentration (MIC) by resazurin microtitre assay (REMA). Format: cell-based. The note with it: for MIC: Mycobacterium tuberculosis, 168 h, M. tuberculosis H37Rv, REMA, 7 days (10 generations), 96-well plate. (In general: Alamar Blue is a resazurin reagent that responds to reducing activity.)

The structures appear in SMILES notation. ≈ marks a conversion by molar mass, not a printed value.

Take `CC(C)[C@@H]1OC(=O)[C@H](C)[C@H](O)[C@H](Cc2cccnc2)NC(=O)[C@@H](NC(=O)c2ncccc2O)[C@@H](C)OC1=O` [Analog 100a]: the lowest concentration to inhibit growth (MIC) was 12.5 µg/mL (≈ 23.6 µM).

`CC(C)[C@H]1OC(=O)[C@H](C)[C@H](O)[C@H](Cc2cccnc2)NC(=O)[C@@H](NC(=O)c2ncccc2O)[C@@H](C)OC1=O` [Analog 100b]: the lowest concentration to inhibit growth (MIC) was 1.56 µg/mL (≈ 2.95 µM). Besides, the “activity against Mycobacterium tuberculosis (strain H37Rv) compared with pyridomycin” value (strain H37Rv, statement in words) is reported as “in the same range of inhibitory activity as for pyridomycin”.
